Measurements published in patent publication US6949561B1, “Steroid 3-O-sulphamate derivatives as inhibitors of oestrone sulphatase” (Sterix Limited, priority 1997, dated 2005).

What was measured:
[1] = cited from earlier work
[2] = target: T1, Rat Liver Sulphatase (E1-STS) (Rattus norvegicus, UniProt P15589); test: In vivo inhibition (rat liver sulphatase); conditions: 2 mg/Kg/day × 5 days, oral dose
T1 construct: from tissue; host or cells: rat liver after oral dosing
T1 sequence (P15589 20-577): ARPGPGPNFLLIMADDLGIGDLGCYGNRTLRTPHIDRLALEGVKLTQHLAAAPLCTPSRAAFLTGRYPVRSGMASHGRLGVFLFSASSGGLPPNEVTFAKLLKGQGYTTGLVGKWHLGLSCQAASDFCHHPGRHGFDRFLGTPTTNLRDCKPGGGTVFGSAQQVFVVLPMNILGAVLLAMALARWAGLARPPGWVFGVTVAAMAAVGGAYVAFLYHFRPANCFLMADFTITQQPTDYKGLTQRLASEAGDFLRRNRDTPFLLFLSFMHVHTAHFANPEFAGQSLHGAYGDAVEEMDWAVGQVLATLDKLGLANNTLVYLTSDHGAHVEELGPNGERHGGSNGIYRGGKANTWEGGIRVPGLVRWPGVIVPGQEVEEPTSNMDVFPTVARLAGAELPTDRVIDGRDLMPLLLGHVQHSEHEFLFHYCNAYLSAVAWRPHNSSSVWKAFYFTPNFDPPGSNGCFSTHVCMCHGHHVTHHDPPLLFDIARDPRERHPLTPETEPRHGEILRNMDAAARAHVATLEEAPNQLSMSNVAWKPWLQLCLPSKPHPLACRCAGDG

[3] = target: T2, Steroid sulphatase (Steryl Sulphatase EC 3.1.6.2; E1-STS) in intact MCF-7 human breast cancer cells (Homo sapiens, UniProt P08842); conditions: 0.1 μM; known from prior art; cited from earlier work
T2 construct: endogenous in cells; host or cells: MCF-7 human breast cancer cells
T2 sequence (P08842 22-583): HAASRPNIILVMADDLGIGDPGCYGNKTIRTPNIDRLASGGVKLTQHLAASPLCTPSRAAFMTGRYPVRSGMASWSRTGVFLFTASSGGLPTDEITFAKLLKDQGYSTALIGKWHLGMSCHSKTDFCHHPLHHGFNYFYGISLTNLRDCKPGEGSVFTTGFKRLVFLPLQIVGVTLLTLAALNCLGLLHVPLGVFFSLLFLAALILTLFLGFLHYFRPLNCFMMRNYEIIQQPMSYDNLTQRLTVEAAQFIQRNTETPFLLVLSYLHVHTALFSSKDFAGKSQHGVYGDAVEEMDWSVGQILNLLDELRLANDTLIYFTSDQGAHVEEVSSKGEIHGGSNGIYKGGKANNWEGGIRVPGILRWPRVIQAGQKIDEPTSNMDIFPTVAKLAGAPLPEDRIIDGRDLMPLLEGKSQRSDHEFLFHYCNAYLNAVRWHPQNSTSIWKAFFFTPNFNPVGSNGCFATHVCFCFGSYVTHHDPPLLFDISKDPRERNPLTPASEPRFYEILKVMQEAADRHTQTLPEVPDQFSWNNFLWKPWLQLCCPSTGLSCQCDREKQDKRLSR

[4] = target: T1, Rat Liver Sulphatase (E1-STS); conditions: administered either orally or subcutaneously; prior art; cited from earlier work
[5] = target: T3, dehydroepiandrosterone sulphatase (DHA-STS) (Rattus norvegicus, UniProt P15589); conditions: administered either orally or subcutaneously; prior art; cited from earlier work
T3 construct: host or cells: rat liver (in vivo dosing)
T3 sequence (P15589 20-577): T1 sequence (P15589 20-577)

[6] = tested on: memory; conditions: rats; prior art; cited from earlier work
[7] = target: T4, E1-STS enzyme (Homo sapiens, UniProt P08842); conditions: prior art; cited from earlier work
T4 sequence (P08842 22-583): T2 sequence (P08842 22-583)

Q: Which half-life in blood [1] does the source give for `C[C@]12CC[C@@H]3c4ccc(OS(=O)(=O)O)cc4CC[C@H]3[C@@H]1CCC2=O` [Compound E1S, oestrone sulphate] here?
A: 10 to 12 h

Q: With `CC12CCC3c4ccc(OS(N)(=O)=O)cc4CCC3C1CCC2=O` (stereo not drawn) [EMATE, oestrone-3-sulphamate] as the molecule, how does the “In Vivo Inhibition (Rat Liver Sulphatase)” value [2] read?
A: 99.1±0.2%

Q: And the “inhibition of E1-STS activity in intact MCF-7 cells” value [3]?
A: more than 99%

Q: And the “inhibition of rat liver E1-STS activity” value [4]?
A: 99%

Q: What about the “inhibition of rat liver DHA-STS activity” value [5] of the same molecule?
A: 99%

Q: What about the memory enhancing effect [6] of the same molecule?
A: memory enhancing effect

Q: What about the “mode of E1-STS inhibition” value [7] of the same molecule?
A: time- and concentration-dependent manner

Q: With oestrone-3-S-sulphamate as the molecule, how does the “mode of E1-STS inhibition” value [7] read?
A: weaker non-time-dependent inactivators

Q: With oestrone-3-N-sulphamate as the molecule, how does the “mode of E1-STS inhibition” value [7] read?
A: weaker non-time-dependent inactivators
